Test results published in publication PMC5404377 (Bioorganic & medicinal chemistry letters, 2016).

Legend:
[1] = molecular target: hMOR (Homo sapiens, UniProt P35372); conditions: read-out: Ki (nM) MOR; literature value; ref [14]; cited from earlier work
[2] = molecular target: hKOR (Homo sapiens, UniProt P41145); conditions: read-out: Ki (nM) KOR; literature value; ref [14]; cited from earlier work
[3] = molecular target: MOR (Rattus norvegicus, UniProt P33535); experiment: [35S]GTPγS assay, agonist efficacy at MOR; assay type: biochemical; conditions: for MOR functional profile: [35S]GTPγS; for Emax: read-out: MOR %Emax
[4] = molecular target: DOR (Rattus norvegicus, UniProt P33533); experiment: [35S]GTPγS assay, agonist efficacy at DOR; assay type: biochemical; conditions: for agonist activity at DOR: [35S]GTPγS
[5] = tested on: Male Swiss-Webster mice; experiment: Hot plate nociception test; assay type: in vivo; conditions: mouse
[6] = tested on: Male Swiss-Webster mice; experiment: Tail-flick nociceptive test; assay type: in vivo; conditions: mouse

Sequence of MOR (P33535 whole entry): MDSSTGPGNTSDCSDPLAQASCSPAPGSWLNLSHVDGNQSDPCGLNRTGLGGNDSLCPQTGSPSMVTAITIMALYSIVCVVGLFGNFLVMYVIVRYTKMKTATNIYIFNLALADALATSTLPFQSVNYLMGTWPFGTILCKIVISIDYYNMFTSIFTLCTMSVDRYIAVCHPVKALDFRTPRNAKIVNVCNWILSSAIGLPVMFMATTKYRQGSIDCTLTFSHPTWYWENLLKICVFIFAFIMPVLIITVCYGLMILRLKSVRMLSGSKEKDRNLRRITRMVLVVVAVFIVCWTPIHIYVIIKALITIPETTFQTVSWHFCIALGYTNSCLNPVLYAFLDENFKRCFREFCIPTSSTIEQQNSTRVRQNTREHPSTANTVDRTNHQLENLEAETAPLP
Sequence of DOR (P33533 whole entry): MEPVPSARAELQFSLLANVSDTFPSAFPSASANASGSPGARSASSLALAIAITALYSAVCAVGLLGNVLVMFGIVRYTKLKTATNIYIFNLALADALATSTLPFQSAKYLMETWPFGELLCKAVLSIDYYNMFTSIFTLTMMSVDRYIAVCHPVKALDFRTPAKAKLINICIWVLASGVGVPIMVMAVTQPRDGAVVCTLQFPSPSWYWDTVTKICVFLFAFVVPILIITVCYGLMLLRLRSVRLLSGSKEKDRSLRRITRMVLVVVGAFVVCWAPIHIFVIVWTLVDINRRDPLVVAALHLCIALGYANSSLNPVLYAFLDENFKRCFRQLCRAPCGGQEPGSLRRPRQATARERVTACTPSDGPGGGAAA
Sequence of hKOR (P41145 whole entry): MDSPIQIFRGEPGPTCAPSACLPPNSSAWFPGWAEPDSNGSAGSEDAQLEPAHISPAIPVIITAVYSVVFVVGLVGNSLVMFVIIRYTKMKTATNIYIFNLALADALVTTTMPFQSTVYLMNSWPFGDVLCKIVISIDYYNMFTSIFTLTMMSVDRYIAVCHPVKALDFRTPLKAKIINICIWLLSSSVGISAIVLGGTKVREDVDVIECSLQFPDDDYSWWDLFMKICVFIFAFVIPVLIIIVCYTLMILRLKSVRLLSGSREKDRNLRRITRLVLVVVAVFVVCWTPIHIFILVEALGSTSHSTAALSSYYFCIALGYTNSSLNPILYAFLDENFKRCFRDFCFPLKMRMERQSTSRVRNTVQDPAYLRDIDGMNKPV
Sequence of hMOR (P35372 whole entry): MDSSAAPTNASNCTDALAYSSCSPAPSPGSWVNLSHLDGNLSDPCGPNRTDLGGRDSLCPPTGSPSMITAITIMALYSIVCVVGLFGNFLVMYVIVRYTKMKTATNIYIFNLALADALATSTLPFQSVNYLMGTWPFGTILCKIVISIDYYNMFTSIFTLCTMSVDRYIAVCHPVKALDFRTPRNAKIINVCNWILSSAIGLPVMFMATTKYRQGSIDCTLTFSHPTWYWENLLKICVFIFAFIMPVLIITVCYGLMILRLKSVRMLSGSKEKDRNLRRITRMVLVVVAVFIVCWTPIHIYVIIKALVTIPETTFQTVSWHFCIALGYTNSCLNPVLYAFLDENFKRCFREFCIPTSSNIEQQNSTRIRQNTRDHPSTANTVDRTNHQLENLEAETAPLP

## O=C1/C(=C/c2ccccc2)C[C@@]2(O)[C@H]3Cc4ccc(O)c5c4[C@@]2(CCN3CC2CC2)[C@H]1O5 [BNTX, benzylidenenaltrexone]
[1]
  Ki: 26 nM
[2]
  Ki: 48 nM

## O=C1/C(=C/c2ccccc2)C[C@@]2(O)[C@H]3Cc4ccc(O)c5c4[C@@]2(CCN3CCc2ccccc2)[C@H]1O5 [Compound 7]
[3]
  MOR functional profile: partial agonists
  Emax: 52 ± 3.8%
[4]
  agonist activity at DOR: no significant agonist activity
[4]; read-out: DOR %Emax
  Emax: < 10%

## O=C1/C(=C/c2ccccc2)C[C@@]2(O)[C@H]3Cc4ccc(O)c5c4[C@@]2(CCN3CCCc2ccccc2)[C@H]1O5 [Compound 8]
[3]
  Emax: < 10%

## CN1CC[C@]23c4c5ccc(O)c4O[C@H]2C(=O)/C(=C/c2ccccc2)C[C@@]3(O)[C@H]1C5 [Compound 6, 7-benzylideneoxymorphone]
[3]
  EC50: 72 ± 11 nM
  MOR functional profile: partial agonists
  Emax: 39 ± 1.3%
[4]
  agonist activity at DOR: no significant agonist activity
[5]; 50 mg/kg s.c., at 30 min (p<0.05)
  hot plate antinociception compared to saline control: significantly greater antinociception
[5]; 60 mg/kg s.c., at 30 (p<0.01), 50 (p<0.001), 70 (p<0.05) min
  hot plate antinociception compared to saline control: significantly greater antinociception
[5]; s.c., increasing doses 20-60 mg/kg
  Emax, hot plate antinociception: approximately 40 % MPE
[6]; 50 mg/kg s.c., at 70 min (p<0.01)
  tail-flick antinociception compared to saline control: significantly greater antinociception
[6]; 60 mg/kg s.c., at 30 (p<0.001), 50 (p<0.01), 70 (p<0.01) min
  tail-flick antinociception compared to saline control: significantly greater antinociception
[6]; 60 mg/kg s.c., post-administration
  time of peak antinociception effects, tail-flick: 30 min
